# Source: article PMC8879702, “Discovery of Small Molecule Activators of Chemokine Receptor CXCR4 That Improve Diabetic Wound Healing” (International Journal of Molecular Sciences, 2022)
# Target: CXCR4 receptor (Homo sapiens, UniProt P61073)
# Test: cAMP signaling assay, forskolin-induced, PathHunter CHO-K1 CXCR4 cells
# Type: cell-based
# Settings: CHO-K1 CXCR4 overexpressed cells
# Description: The CXCR4 receptor is a G-protein coupled receptor (GPCR) coupled to the Gi class, whose primary role is inhibition of adenylate cyclase. We tested the ability of UCUF-728 to induce a Gi-mediated cAMP-inhibitory cellular response. […] (Figure 2B).
# Forskolin at final concentration of 0.5 mM was added to all wells using the TECAN dispenser. […] of PathHunter CHO-K1 CXCR4 cells (DiscoverX, Fremont, CA, USA) were added to compounds at 3000 cells/well, centrifuged at 1000 rpm for 30 s and incubated for 30 min at room temperature. DMSO (Sigma Aldrich, St. Louis, MO, USA) was normalized to 0.5%. […] of 4X Eu-cAMP tracer working solution were added to all wells, followed by addition of 5 μL of 4X Ulight-anti-cAMP working solution to all wells. Plates were centrifuged at 1000 rpm for 1 min and incubated for 1 h at room temperature, then read using CLARIOstar Plus (BMG LABTECH Inc., Cary, NC, USA) Lance CAMP protocol.
# Sequence of CXCR4 receptor (P61073 whole entry): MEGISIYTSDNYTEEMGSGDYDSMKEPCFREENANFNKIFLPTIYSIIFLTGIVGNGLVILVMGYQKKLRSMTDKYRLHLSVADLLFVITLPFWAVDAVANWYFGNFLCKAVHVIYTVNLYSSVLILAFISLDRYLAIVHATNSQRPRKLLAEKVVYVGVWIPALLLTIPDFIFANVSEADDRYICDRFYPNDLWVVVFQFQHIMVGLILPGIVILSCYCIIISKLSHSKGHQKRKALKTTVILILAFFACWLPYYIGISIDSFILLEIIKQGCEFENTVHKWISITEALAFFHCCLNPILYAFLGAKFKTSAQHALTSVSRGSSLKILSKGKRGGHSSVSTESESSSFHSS
compound,measurement,value
COc1ccc(OC)c(NS(=O)(=O)c2ccc(-c3cnc(C4CC4)o3)cc2)c1 [Compound 19],inhibition of forskolin-induced adenylate cyclase (cAMP signaling),did not inhibit forskolin-induced adenylate cyclase
